In PubChem BioAssay AID248 (DTP/NCI, 2004):
Inconclusive results and toxic doses are left out. No stated cut-off is given here; in the data, active means T/C of 150% or more; inactive means T/C below 125%.

Test system: L1210 leukemia ip in BDF1 mice, survival T/C
Assay: NCI In Vivo Anticancer Drug Screen. Data for tumor model L1210 Leukemia (intraperitoneal) in B6D2F1 (BDF1) mice
Conditions: endpoint: mean survival time, higher = longer survival
Procedure, shortened: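 Mice bearing the transplanted tumor received compound or vehicle. Survival of the treated group was divided by that of the vehicle-treated control group to give the ratio.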

[1] = dose: 100.0 mg/kg/injection, schedule: Q01DX001 (ip), vehicle: saline
[2] = dose: 200.0 mg/kg/injection, schedule: Q01DX001 (ip), vehicle: saline
[3] = dose: 400.0 mg/kg/injection, schedule: Q01DX001 (ip), vehicle: saline
[4] = dose: 100.0 mg/kg/injection, schedule: Q01DX009 (ip), vehicle: saline with Tween-80
[5] = dose: 100.0 mg/kg/injection, schedule: Q04DX003 (ip), vehicle: saline with Tween-80
[6] = dose: 200.0 mg/kg/injection, schedule: Q04DX003 (ip), vehicle: saline with Tween-80
[7] = dose: 100.0 mg/kg/injection, schedule: Q04DX003 (ip), vehicle: saline
[8] = dose: 200.0 mg/kg/injection, schedule: Q04DX003 (ip), vehicle: saline
[9] = dose: 400.0 mg/kg/injection, schedule: Q04DX003 (ip), vehicle: saline
[10] = dose: 100.0 mg/kg/injection, schedule: Q01DX009 (ip), vehicle: saline
[11] = dose: 200.0 mg/kg/injection, schedule: Q01DX009 (ip), vehicle: saline
[12] = dose: 400.0 mg/kg/injection, schedule: Q01DX009 (ip), vehicle: saline
[13] = dose: 100.0 mg/kg/injection, schedule: Q01DX001 (ip), vehicle: carboxymethylcellulose (CMC)
[14] = dose: 200.0 mg/kg/injection, schedule: Q01DX001 (ip), vehicle: carboxymethylcellulose (CMC)
[15] = dose: 50.0 mg/kg/injection, schedule: Q04DX002 (ip), vehicle: Klucel (hydroxypropylcellulose) (HPC)
[16] = dose: 100.0 mg/kg/injection, schedule: Q04DX002 (ip), vehicle: Klucel (hydroxypropylcellulose) (HPC)
[17] = dose: 12.5 mg/kg/injection, schedule: Q01DX009 (ip), vehicle: saline
[18] = dose: 25.0 mg/kg/injection, schedule: Q01DX009 (ip), vehicle: saline
[19] = dose: 100.0 mg/kg/injection, schedule: Q04DX003 (ip), vehicle: Klucel (hydroxypropylcellulose) (HPC)
[20] = dose: 200.0 mg/kg/injection, schedule: Q04DX003 (ip), vehicle: Klucel (hydroxypropylcellulose) (HPC)
[21] = dose: 400.0 mg/kg/injection, schedule: Q04DX003 (ip), vehicle: Klucel (hydroxypropylcellulose) (HPC)
[22] = dose: 50.0 mg/kg/injection, schedule: Q04DX003 (ip), vehicle: saline

Measured: T/C

O=C(O)c1cccc2c1-c1ccccc1/C2=N\O
inactive: [1] 100 % of control | [2] 110 % of control | [3] 104 % of control

CC(C(=O)O)C(NC(=O)c1ccccc1)C(=O)O (centres undefined)
inactive: dose: 100.0 mg/kg/injection, schedule: Q01DX001 (ip), vehicle: Klucel (hydroxypropylcellulose) (HPC) 93 % of control | dose: 200.0 mg/kg/injection, schedule: Q01DX001 (ip), vehicle: Klucel (hydroxypropylcellulose) (HPC) 100 % of control | dose: 400.0 mg/kg/injection, schedule: Q01DX001 (ip), vehicle: Klucel (hydroxypropylcellulose) (HPC) 92 % of control

Cc1ccc(S(=O)(=O)Nc2cccc3c(NS(=O)(=O)c4ccc(C)cc4)cccc23)cc1
inactive: [4] 96 % of control | dose: 200.0 mg/kg/injection, schedule: Q01DX009 (ip), vehicle: saline with Tween-80 94 % of control | dose: 400.0 mg/kg/injection, schedule: Q01DX009 (ip), vehicle: saline with Tween-80 100 % of control

CCCCCCCCP(=O)(CCCCCCCC)C(O)C(Cl)(Cl)Cl (centres undefined)
inactive: [5] 91 % of control | [6] 96 % of control | dose: 400.0 mg/kg/injection, schedule: Q04DX003 (ip), vehicle: saline with Tween-80 92 % of control

CCC(OBr)C1COC(Nc2ccccc2)O1 (centres undefined)
inactive: dose: 100.0 mg/kg/injection, schedule: Q01DX009 (ip), vehicle: Klucel (hydroxypropylcellulose) (HPC) 96 % of control | [7] 95 % of control | dose: 200.0 mg/kg/injection, schedule: Q01DX009 (ip), vehicle: Klucel (hydroxypropylcellulose) (HPC) 96 % of control | [8] 105 % of control | dose: 400.0 mg/kg/injection, schedule: Q01DX009 (ip), vehicle: Klucel (hydroxypropylcellulose) (HPC) 103 % of control | [9] 101 % of control

[O]=[V]([OH])([OH])[OH]
inactive: dose: 2.0 mg/kg/injection, schedule: Q01DX015 (ip), vehicle: saline 101 % of control | dose: 4.0 mg/kg/injection, schedule: Q01DX015 (ip), vehicle: saline 103 % of control | dose: 8.0 mg/kg/injection, schedule: Q01DX015 (ip), vehicle: saline 103 % of control | dose: 12.5 mg/kg/injection, schedule: Q01DX001 (ip), vehicle: saline 113 % of control | dose: 16.0 mg/kg/injection, schedule: Q01DX015 (ip), vehicle: saline 108 % of control | dose: 25.0 mg/kg/injection, schedule: Q01DX001 (ip), vehicle: saline 96 % of control | dose: 32.0 mg/kg/injection, schedule: Q01DX015 (ip), vehicle: saline 103 % of control | dose: 50.0 mg/kg/injection, schedule: Q01DX001 (ip), vehicle: saline 98 % of control | dose: 64.0 mg/kg/injection, schedule: Q01DX015 (ip), vehicle: saline 88 % of control

COCC(O)CC#N (centres undefined)
inactive: [10] 117 % of control | [11] 113 % of control | [12] 111 % of control

CN(C)c1ncnc2c1cnn2C
inactive: [13] 96 % of control | [14] 110 % of control

N#Cc1cccn1-c1cccc2c(-n3cccc3C#N)cccc12
inactive: dose: 25.0 mg/kg/injection, schedule: Q04DX002 (ip), vehicle: Klucel (hydroxypropylcellulose) (HPC) 101 % of control | [15] 97 % of control | [16] 101 % of control

Cc1cccc(C(=O)NN)n1
inactive: [17] 94 % of control | [18] 105 % of control

O=C(CC1(c2ccccc2)C(=O)c2ccccc2C1=O)c1ccccc1
inactive: [13] 94 % of control | [14] 91 % of control | dose: 400.0 mg/kg/injection, schedule: Q01DX001 (ip), vehicle: carboxymethylcellulose (CMC) 94 % of control

CS(=O)(=O)c1cccc(N)c1
inactive: [1] 102 % of control | [2] 91 % of control | [3] 98 % of control

Oc1ccccc1C=Nc1ccccc1O.[Cu+2]
inactive: dose: 100.0 mg/kg/injection, schedule: Q01DX001 (ip), vehicle: other 107 % of control | dose: 200.0 mg/kg/injection, schedule: Q01DX001 (ip), vehicle: other 116 % of control

CCC(C)C1NC(=O)C2C(CCN2C(=O)C(NC(=O)C(Cc2ccccc2)N(C)C)C(C)CC)Oc2ccc(cc2)/C=C\NC1=O (centres undefined)
inactive: [7] 94 % of control | [8] 97 % of control | [9] 92 % of control

O=c1c2ccccc2nnn1-c1ccccc1Cl
inactive: [10] 105 % of control | [11] 103 % of control | [12] 89 % of control

CN(C)c1ccc(/C=C/c2nc3ccc(Cl)cc3[nH]2)cc1
inactive: [19] 96 % of control | [20] 103 % of control | [21] 96 % of control

COC(=O)c1nc(Cl)nc(N)c1Cl
inactive: [19] 94 % of control | [20] 94 % of control | [21] 97 % of control

CCC(F)C(Br)C(=O)O (centres undefined)
inactive: dose: 100.0 mg/kg/injection, schedule: Q04DX002 (ip), vehicle: saline with Tween-80 101 % of control | dose: 200.0 mg/kg/injection, schedule: Q04DX002 (ip), vehicle: saline with Tween-80 93 % of control | dose: 400.0 mg/kg/injection, schedule: Q04DX002 (ip), vehicle: saline with Tween-80 87 % of control

O=C1Cc2ccccc2N1C(=O)c1ccccc1
inactive: [15] 97 % of control | [16] 101 % of control | dose: 200.0 mg/kg/injection, schedule: Q04DX002 (ip), vehicle: Klucel (hydroxypropylcellulose) (HPC) 90 % of control

CCCCOc1ccc(C(=O)NN)cc1
inactive: dose: 25.0 mg/kg/injection, schedule: Q01DX009 (ip), vehicle: saline with Tween-80 93 % of control | dose: 50.0 mg/kg/injection, schedule: Q01DX009 (ip), vehicle: saline with Tween-80 102 % of control | [4] 88 % of control

COc1nccc2ccccc12
inactive: [5] 94 % of control | [6] 92 % of control

CC(C)(C)C([NH-])=O.CC(C)(C)C([NH-])=O.[Cl][Pt+2][Cl]
inactive: dose: 6.25 mg/kg/injection, schedule: Q01DX009 (ip), vehicle: saline 86 % of control | [17] 94 % of control | dose: 12.5 mg/kg/injection, schedule: Q04DX003 (ip), vehicle: saline 116 % of control | [18] 101 % of control | dose: 25.0 mg/kg/injection, schedule: Q04DX003 (ip), vehicle: saline 102 % of control | [22] 109 % of control

CCNC(=O)CCP(=O)(CCC(=O)NCC)CCC(=O)NCC
inactive: dose: 50.0 mg/kg/injection, schedule: Q01DX009 (ip), vehicle: saline 94 % of control | [22] 101 % of control | [10] 90 % of control | [7] 101 % of control | [11] 90 % of control | [8] 101 % of control | [9] 101 % of control

O=C(O)CSC(SCC(=O)O)c1ccccc1Cl
inactive: dose: 50.0 mg/kg/injection, schedule: Q04DX003 (ip), vehicle: Klucel (hydroxypropylcellulose) (HPC) 96 % of control | [19] 100 % of control | [20] 96 % of control
